Legend:
Assay type in all cases: in vivo
Conditions in all cases: applied at 1000 g/h, evaluated after 13 days
[1] = system: Alopecurus myosuroides (ALOMY); assay: Herbicidal glasshouse test, pre-emergence, ALOMY
Experimental: (§1) Seeds of a variety of test species are sown in standard soil in pots (Alopecurus myosuroides (ALOMY), Setaria faberi (SETFA), Echinochloa crus-galli (ECHCG), Solanum nigrum (SOLNI), Amaranthus retoflexus (AMARE), Ipomoea hederacea (IPOHE)). After cultivation for one day (pre-emergence) or after 8 days cultivation (post-emergence) under controlled conditions in a glasshouse (at 24/16° C., day/night; 14 hours light; 65% humidity), the plants are sprayed with an aqueous spray solution derived from the formulation of the technical active ingredient in acetone / water (50:50) solution containing 0.5% Tween 20 (polyoxyethelyene sorbitan monolaurate, CAS RN 9005-64-5). […] The test plants are then grown in a glasshouse under controlled conditions in a glasshouse (at 24/16° C., day/night; 14 hours light; 65% humidity) and watered twice daily. After 13 days for pre and post-emergence, the test is evaluated for the percentage damage caused to the plant. The biological activities are shown in the following table on a five point scale (5=80-100%; 4=60-79%; 3=40-59%; 2=20-39%; 1=0-19%).

Setaria faberi (SETFA) [2] = assay: Herbicidal glasshouse test, pre-emergence, SETFA
Experimental: as §1

[3] = system: Echinochloa crus-galli (ECHCG); assay: Herbicidal glasshouse test, pre-emergence, ECHCG
Experimental: as §1

Solanum nigrum (SOLNI) [4] = assay: Herbicidal glasshouse test, pre-emergence, SOLNI
Experimental: as §1

[5] = system: Amaranthus retoflexus (AMARE); assay: Herbicidal glasshouse test, pre-emergence, AMARE
Experimental: as §1

[6] = system: Ipomoea hederacea (IPOHE); assay: Herbicidal glasshouse test, pre-emergence, IPOHE
Experimental: as §1

[7] = system: Alopecurus myosuroides (ALOMY); assay: Herbicidal glasshouse test, post-emergence, ALOMY
Experimental: as §1

Setaria faberi (SETFA) [8] = assay: Herbicidal glasshouse test, post-emergence, SETFA
Experimental: as §1

[9] = system: Echinochloa crus-galli (ECHCG); assay: Herbicidal glasshouse test, post-emergence, ECHCG
Experimental: as §1

Solanum nigrum (SOLNI) [10] = assay: Herbicidal glasshouse test, post-emergence, SOLNI
Experimental: as §1

[11] = system: Amaranthus retoflexus (AMARE); assay: Herbicidal glasshouse test, post-emergence, AMARE
Experimental: as §1

[12] = system: Ipomoea hederacea (IPOHE); assay: Herbicidal glasshouse test, post-emergence, IPOHE
Experimental: as §1

SMILES: C=CCn1nc(C(=O)Nc2nnnn2C)c(=O)n(-c2ccc(F)cc2)c1=O [Compound 1.011]
- PRE Application ALOMY, percentage damage (five point scale) [1]: 4 (4=60-79%)
- PRE Application SETFA, percentage damage (five point scale) (Setaria faberi (SETFA) [2]): 4 (4=60-79%)
- PRE Application ECHCG, percentage damage (five point scale) [3]: 5 (5=80-100%)
- PRE Application SOLNI, percentage damage (five point scale) (Solanum nigrum (SOLNI) [4]): 5 (5=80-100%)
- PRE Application AMARE, percentage damage (five point scale) [5]: 5 (5=80-100%)
- PRE Application IPOHE, percentage damage (five point scale) [6]: 5 (5=80-100%)
- POST Application ALOMY, percentage damage (five point scale) [7]: 5 (5=80-100%)
- POST Application SETFA, percentage damage (five point scale) (Setaria faberi (SETFA) [8]): 5 (5=80-100%)
- POST Application ECHCG, percentage damage (five point scale) [9]: 5 (5=80-100%)
- POST Application SOLNI, percentage damage (five point scale) (Solanum nigrum (SOLNI) [10]): 5 (5=80-100%)
- POST Application AMARE, percentage damage (five point scale) [11]: 5 (5=80-100%)
- POST Application IPOHE, percentage damage (five point scale) [12]: 5 (5=80-100%)

SMILES: Cc1cc(-n2c(=O)c(C(=O)Nc3nnnn3C)nn(C)c2=O)ccc1F [Compound 1.037]
- PRE Application ALOMY, percentage damage (five point scale) [1]: 5 (5=80-100%)
- PRE Application SETFA, percentage damage (five point scale) (Setaria faberi (SETFA) [2]): 5 (5=80-100%)
- PRE Application ECHCG, percentage damage (five point scale) [3]: 5 (5=80-100%)
- PRE Application SOLNI, percentage damage (five point scale) (Solanum nigrum (SOLNI) [4]): 5 (5=80-100%)
- PRE Application AMARE, percentage damage (five point scale) [5]: 5 (5=80-100%)
- PRE Application IPOHE, percentage damage (five point scale) [6]: 5 (5=80-100%)
- POST Application ALOMY, percentage damage (five point scale) [7]: 5 (5=80-100%)
- POST Application SETFA, percentage damage (five point scale) (Setaria faberi (SETFA) [8]): 5 (5=80-100%)
- POST Application ECHCG, percentage damage (five point scale) [9]: 5 (5=80-100%)
- POST Application SOLNI, percentage damage (five point scale) (Solanum nigrum (SOLNI) [10]): 5 (5=80-100%)
- POST Application AMARE, percentage damage (five point scale) [11]: 5 (5=80-100%)
- POST Application IPOHE, percentage damage (five point scale) [12]: 5 (5=80-100%)

SMILES: C#CCn1c(=O)c(C(=O)Nc2nnnn2C)nn(C)c1=O [Compound 1.089]
- PRE Application ALOMY, percentage damage (five point scale) [1]: 5 (5=80-100%)
- PRE Application SETFA, percentage damage (five point scale) (Setaria faberi (SETFA) [2]): 5 (5=80-100%)
- PRE Application ECHCG, percentage damage (five point scale) [3]: 5 (5=80-100%)
- PRE Application SOLNI, percentage damage (five point scale) (Solanum nigrum (SOLNI) [4]): 5 (5=80-100%)
- PRE Application AMARE, percentage damage (five point scale) [5]: 5 (5=80-100%)
- PRE Application IPOHE, percentage damage (five point scale) [6]: 5 (5=80-100%)
- POST Application ALOMY, percentage damage (five point scale) [7]: 5 (5=80-100%)
- POST Application SETFA, percentage damage (five point scale) (Setaria faberi (SETFA) [8]): 5 (5=80-100%)
- POST Application ECHCG, percentage damage (five point scale) [9]: 5 (5=80-100%)
- POST Application SOLNI, percentage damage (five point scale) (Solanum nigrum (SOLNI) [10]): 5 (5=80-100%)
- POST Application AMARE, percentage damage (five point scale) [11]: 5 (5=80-100%)
- POST Application IPOHE, percentage damage (five point scale) [12]: 5 (5=80-100%)

SMILES: CCn1nnnc1NC(=O)c1cn(C)c(=O)n(-c2cccc(F)c2)c1=O [Compound 4.003]
- PRE Application ALOMY, percentage damage (five point scale) [1]: 2 (2=20-39%)
- PRE Application SETFA, percentage damage (five point scale) (Setaria faberi (SETFA) [2]): 1 (1=0-19%)
- PRE Application ECHCG, percentage damage (five point scale) [3]: 1 (1=0-19%)
- PRE Application SOLNI, percentage damage (five point scale) (Solanum nigrum (SOLNI) [4]): 4 (4=60-79%)
- PRE Application AMARE, percentage damage (five point scale) [5]: 5 (5=80-100%)
- PRE Application IPOHE, percentage damage (five point scale) [6]: 3 (3=40-59%)
- POST Application ALOMY, percentage damage (five point scale) [7]: 2 (2=20-39%)
- POST Application SETFA, percentage damage (five point scale) (Setaria faberi (SETFA) [8]): 1 (1=0-19%)
- POST Application ECHCG, percentage damage (five point scale) [9]: 1 (1=0-19%)
- POST Application SOLNI, percentage damage (five point scale) (Solanum nigrum (SOLNI) [10]): 5 (5=80-100%)
- POST Application AMARE, percentage damage (five point scale) [11]: 5 (5=80-100%)
- POST Application IPOHE, percentage damage (five point scale) [12]: 2 (2=20-39%)

SMILES: Cn1nnnc1NC(=O)c1nn(C)c(=O)n(-c2ccc(F)cc2)c1=O [Compound 1.015]
- PRE Application ALOMY, percentage damage (five point scale) [1]: 5 (5=80-100%)
- PRE Application SETFA, percentage damage (five point scale) (Setaria faberi (SETFA) [2]): 5 (5=80-100%)
- PRE Application ECHCG, percentage damage (five point scale) [3]: 5 (5=80-100%)
- PRE Application SOLNI, percentage damage (five point scale) (Solanum nigrum (SOLNI) [4]): 5 (5=80-100%)
- PRE Application AMARE, percentage damage (five point scale) [5]: 5 (5=80-100%)
- PRE Application IPOHE, percentage damage (five point scale) [6]: 5 (5=80-100%)
- POST Application ALOMY, percentage damage (five point scale) [7]: 5 (5=80-100%)
- POST Application SETFA, percentage damage (five point scale) (Setaria faberi (SETFA) [8]): 5 (5=80-100%)
- POST Application ECHCG, percentage damage (five point scale) [9]: 5 (5=80-100%)
- POST Application SOLNI, percentage damage (five point scale) (Solanum nigrum (SOLNI) [10]): 5 (5=80-100%)
- POST Application AMARE, percentage damage (five point scale) [11]: 5 (5=80-100%)
- POST Application IPOHE, percentage damage (five point scale) [12]: 5 (5=80-100%)

SMILES: Cn1nnnc1NC(=O)c1nn(C)c(=O)n(Cc2ccc(C(F)(F)F)cc2)c1=O [Compound 1.057]
- PRE Application ALOMY, percentage damage (five point scale) [1]: 5 (5=80-100%)
- PRE Application SETFA, percentage damage (five point scale) (Setaria faberi (SETFA) [2]): 1 (1=0-19%)
- PRE Application ECHCG, percentage damage (five point scale) [3]: 5 (5=80-100%)
- PRE Application SOLNI, percentage damage (five point scale) (Solanum nigrum (SOLNI) [4]): 3 (3=40-59%)
- PRE Application AMARE, percentage damage (five point scale) [5]: 5 (5=80-100%)
- PRE Application IPOHE, percentage damage (five point scale) [6]: 4 (4=60-79%)
- POST Application ALOMY, percentage damage (five point scale) [7]: 5 (5=80-100%)
- POST Application SETFA, percentage damage (five point scale) (Setaria faberi (SETFA) [8]): 1 (1=0-19%)
- POST Application ECHCG, percentage damage (five point scale) [9]: 4 (4=60-79%)
- POST Application SOLNI, percentage damage (five point scale) (Solanum nigrum (SOLNI) [10]): 5 (5=80-100%)
- POST Application AMARE, percentage damage (five point scale) [11]: 5 (5=80-100%)
- POST Application IPOHE, percentage damage (five point scale) [12]: 5 (5=80-100%)

SMILES: Cn1nnnc1NC(=O)c1nn(C)c(=O)n(-c2cccc(Cl)c2)c1=O [Compound 1.019]
- PRE Application ALOMY, percentage damage (five point scale) [1]: 5 (5=80-100%)
- PRE Application SETFA, percentage damage (five point scale) (Setaria faberi (SETFA) [2]): 5 (5=80-100%)
- PRE Application ECHCG, percentage damage (five point scale) [3]: 5 (5=80-100%)
- PRE Application SOLNI, percentage damage (five point scale) (Solanum nigrum (SOLNI) [4]): 5 (5=80-100%)
- PRE Application AMARE, percentage damage (five point scale) [5]: 5 (5=80-100%)
- PRE Application IPOHE, percentage damage (five point scale) [6]: 5 (5=80-100%)
- POST Application ALOMY, percentage damage (five point scale) [7]: 5 (5=80-100%)
- POST Application SETFA, percentage damage (five point scale) (Setaria faberi (SETFA) [8]): 5 (5=80-100%)
- POST Application ECHCG, percentage damage (five point scale) [9]: 5 (5=80-100%)
- POST Application SOLNI, percentage damage (five point scale) (Solanum nigrum (SOLNI) [10]): 5 (5=80-100%)
- POST Application AMARE, percentage damage (five point scale) [11]: 5 (5=80-100%)
- POST Application IPOHE, percentage damage (five point scale) [12]: 5 (5=80-100%)

SMILES: Cn1nnnc1NC(=O)c1nn(C)c(=O)n(Cc2c(F)cccc2F)c1=O [Compound 1.065]
- PRE Application ALOMY, percentage damage (five point scale) [1]: 5 (5=80-100%)
- PRE Application SETFA, percentage damage (five point scale) (Setaria faberi (SETFA) [2]): 5 (5=80-100%)
- PRE Application ECHCG, percentage damage (five point scale) [3]: 5 (5=80-100%)
- PRE Application SOLNI, percentage damage (five point scale) (Solanum nigrum (SOLNI) [4]): 5 (5=80-100%)
- PRE Application AMARE, percentage damage (five point scale) [5]: 5 (5=80-100%)
- PRE Application IPOHE, percentage damage (five point scale) [6]: 5 (5=80-100%)
- POST Application ALOMY, percentage damage (five point scale) [7]: 5 (5=80-100%)
- POST Application SETFA, percentage damage (five point scale) (Setaria faberi (SETFA) [8]): 5 (5=80-100%)
- POST Application ECHCG, percentage damage (five point scale) [9]: 5 (5=80-100%)
- POST Application SOLNI, percentage damage (five point scale) (Solanum nigrum (SOLNI) [10]): 5 (5=80-100%)
- POST Application AMARE, percentage damage (five point scale) [11]: 5 (5=80-100%)
- POST Application IPOHE, percentage damage (five point scale) [12]: 5 (5=80-100%)

SMILES: CCCCn1c(=O)c(C(=O)Nc2nnnn2C)nn(C)c1=O [Compound 1.001]
- PRE Application ALOMY, percentage damage (five point scale) [1]: 5 (5=80-100%)
- PRE Application SETFA, percentage damage (five point scale) (Setaria faberi (SETFA) [2]): 5 (5=80-100%)
- PRE Application ECHCG, percentage damage (five point scale) [3]: 5 (5=80-100%)
- PRE Application SOLNI, percentage damage (five point scale) (Solanum nigrum (SOLNI) [4]): 5 (5=80-100%)
- PRE Application AMARE, percentage damage (five point scale) [5]: 5 (5=80-100%)
- PRE Application IPOHE, percentage damage (five point scale) [6]: 5 (5=80-100%)
- POST Application ALOMY, percentage damage (five point scale) [7]: 5 (5=80-100%)
- POST Application SETFA, percentage damage (five point scale) (Setaria faberi (SETFA) [8]): 5 (5=80-100%)
- POST Application ECHCG, percentage damage (five point scale) [9]: 5 (5=80-100%)
- POST Application SOLNI, percentage damage (five point scale) (Solanum nigrum (SOLNI) [10]): 5 (5=80-100%)
- POST Application AMARE, percentage damage (five point scale) [11]: 5 (5=80-100%)
- POST Application IPOHE, percentage damage (five point scale) [12]: 5 (5=80-100%)
